According to patent US20120093948A1, “Nitric Oxide Treatments” (priority 2009, published 2012):
Like-named read-outs stand apart in the source and are kept apart here.

Key:
man = details: cited from earlier work
Guinea Pig = details: less than 1 ppm, duration 7 days; cited from earlier work
Rabbit = details: less than 1 ppm, duration 24 days; cited from earlier work
Mouse = details: less than 1 ppm, cited from earlier work
[1] = system: patients with pulmonary tuberculosis; details: 80 ppm; cited from earlier work
[2] = system: patients with pulmonary fibrosis; details: inhaled; cited from earlier work
dogs = assay: Fourteen-day toxicity study using the delivery devices, dogs; type: in vivo; details: doses well in excess of 80 ppm NO
rats = assay: Fourteen-day toxicity study using the delivery devices, rats; type: in vivo; details: doses well in excess of 80 ppm NO
COPD patients = details: NO with oxygen, 3 month period, compared to oxygen alone; cited from earlier work
[3] = system: patents suffering massive pulmonary embolism; details: inhaled; cited from earlier work
[4] = system: child with traumatic brain injury; details: NO therapy; cited from earlier work
[5] = system: patients with cardiogenic shock due to RVMI; details: cited from earlier work
[6] = system: patients with acute lung injury/acute respiratory distress syndrome; details: conventional iNO; cited from earlier work
[7] = system: newborns with hypoxic respiratory failure; details: inhaled; cited from earlier work
mice models of malaria = details: mouse, in vivo; cited from earlier work

[O]N=O [NO2, nitrogen dioxide]
OUTCOME (man; NO2 dose 0.1 ppm, exposure 60 min, asthmatics): 13/16 asthmatics increase in reaction to | OUTCOME (man; NO2 dose 0.7-2.0 ppm, exposure 10 min): Increase in inspiratory and expiratory flow | OUTCOME (man; NO2 dose 1.6-2.0 ppm, exposure 15 min): Significant increase in total airway resistance | OUTCOME(S) (Guinea Pig): Increased protein content of lung lavage fluid | OUTCOME(S) (Rabbit): Structural changes in lung collagen fibers | OUTCOME(S) (Mouse; duration 1 day): Increased ascorbic acid levels in the liver | OUTCOME(S) (Mouse; duration 90 days): Depression in serum neutralizing

[N]=O [NO, nitric oxide]
safety of delivery [1]: safely delivered | arterial oxygen tension [2]: without a decrease | pulmonary vascular resistance [2]: decreased | ventilation perfusion matching [2]: maintained | Fourteen-day toxicity study outcome (dogs): successfully been completed | Fourteen-day toxicity study outcome (rats): successfully been completed | oxygenation (COPD patients): did not result in a decrease | systemic blood pressures, heart rate and gas exchange [3]: improvements | adverse cerebral effects [4]: No adverse cerebral effects | decreased mPAP ([5]; NO 80 ppm acutely): 12% | decreased mRAP ([5]; NO 80 ppm acutely): 12% | improved cardiac index ([5]; NO 80 ppm acutely): 24% | decrease shunt flow ([5]; inhaled NO): 56% | systemic oxygen saturation ([5]; inhaled NO): markedly improved | outcomes (increased PaO2, survival) [6]: positive outcomes | arterial oxygen levels [7]: safely improves | need for Extracorporeal Membrane Oxygenation (ECMO) [7]: decreases | neurological damage (mice models of malaria): protection | survival (mice models of malaria): increased chance of survival
